Measured values taken from PubChem BioAssay (NCI).
Several values for one entry are separate records, joined by “and”; a condition that tells them apart may be missing. Equal entries are not always repeated.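 Dose response: 5 concentrations. Exposure: 48 h. Format: 96-well plates. Endpoint: linear interpolation; highest concentration if not reached. GI50 marks 50% less growth. TGI denotes the concentration required for complete inhibition of growth.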

What was measured:
Assay in all cases: growth of human tumour cells (NCI), 48 h
[1] = tested on: OVCAR-3 ovarian
[2] = tested on: OVCAR-4 ovarian
[3] = tested on: A549 NSCLC
[4] = tested on: M14 melanoma
[5] = tested on: HOP-92 NSCLC
[6] = tested on: OVCAR-5 ovarian
[7] = tested on: UACC-62 melanoma
[8] = tested on: T-47D breast
[9] = tested on: HCC-2998 colon
[10] = tested on: SNB-75 CNS
[11] = tested on: SF-268 CNS
[12] = tested on: SK-MEL-2 melanoma
[13] = tested on: EKVX NSCLC
[14] = tested on: PC-3 prostate
[15] = tested on: MDA-MB-435
[16] = tested on: NCI/ADR-RES ovarian
[17] = tested on: BT-549 breast
[18] = tested on: NCI-H522 lung
[19] = tested on: NCI-H226 lung
[20] = tested on: ACHN renal
[21] = tested on: MALME-3M melanoma
[22] = tested on: A498 renal
[23] = tested on: MCF7 breast
[24] = tested on: SF-295 CNS
[25] = tested on: IGROV1 ovarian
[26] = tested on: CCRF-CEM leukemia
[27] = tested on: CAKI-1 renal
[28] = tested on: HCT-116 colon
[29] = tested on: NCI-H23 lung
[30] = tested on: HOP-62 NSCLC
[31] = tested on: U251 CNS
[32] = tested on: SR leukemia
[33] = tested on: OVCAR-8 ovarian
[34] = tested on: SK-MEL-28 melanoma
[35] = tested on: UACC-257 melanoma
[36] = tested on: RXF 393 renal
[37] = tested on: COLO 205 colon
[38] = tested on: NCI-H460 lung
[39] = tested on: KM12 colon
[40] = tested on: SK-MEL-5 melanoma
[41] = tested on: MDA-MB-231 breast
[42] = tested on: RPMI-8226 leukemia
[43] = tested on: UO-31 renal
[44] = tested on: SW-620 colon
[45] = tested on: DU-145 prostate
[46] = tested on: HT29 colon
[47] = tested on: K-562 leukemia
[48] = tested on: HCT-15 colon
[49] = tested on: HS 578T breast
[50] = tested on: LOX IMVI melanoma
[51] = tested on: TK-10 renal
[52] = tested on: MOLT-4 leukemia
[53] = tested on: SNB-19 CNS
[54] = tested on: SK-OV-3 ovarian
[55] = tested on: SF-539 CNS
[56] = tested on: SN12C renal
[57] = tested on: HL-60(TB) leukemia
[58] = tested on: 786-0 renal

Question: Which results are given for `CC(C)C[C@@H](NC(=O)[C@@H](Cc1ccccc1)NC(=O)c1cnccn1)B1Oc2ccc(C[C@H](NC(=O)[C@H](Cc3ccc4c(c3)OB([C@@H](CC(C)C)NC(=O)[C@@H](Cc3ccccc3)NC(=O)c3cnccn3)O4)NC(=O)[C@@H](N)CC3CCC4OB([C@@H](CC(C)C)NC(=O)[C@@H](CC5CCCCC5)NC(=O)C5CNCCN5)OC4C3)C(=O)NCCCC[C@@H]3NC(=O)[C@@H](Cc4ccccc4)NC(=O)[C@H](CC(=O)O)NC(=O)CNC(=O)[C@H](CCCNC(=N)N)NC3=O)cc2O1` (stereo partly drawn)?
Answer: GI50 [1]: 2.53 nM and 2.5 nM; TGI [1]: 6.73 nM and 3.27 nM; GI50 [2]: 5.05 nM and 2.5 nM; TGI [2]: 181 nM and 548 nM; GI50 [3]: 7.23 nM and 8.38 nM; TGI [3]: 321 nM; GI50 [4]: 3.22 nM and 2.5 nM; GI50 [5]: 3.69 nM and 2.5 nM; TGI [5]: 26.7 nM and 9.53 nM; GI50 [6]: 7.84 nM and 3.82 nM; TGI [6]: 132 nM and 360 nM; GI50 [7]: 4.12 nM and 2.5 nM; GI50 [8]: 3.88 nM and 2.5 nM; TGI [8]: 41.1 nM and 11.7 nM; GI50 [9]: 6.49 nM and 3.89 nM; TGI [9]: 19.8 nM and 7.63 nM; GI50 [10]: 3.92 nM; TGI [10]: 24.8 nM; GI50 [11]: 4.1 nM and 2.8 nM; TGI [11]: 27.9 nM and 13.6 nM; GI50 [12]: 5.45 nM and 2.5 nM; TGI [12]: 64.9 nM and 9.2 nM; GI50 [13]: 10.6 nM and 7.75 nM; TGI [13]: 527 nM and 304 nM; GI50 [14]: 13.5 nM and 6.32 nM; TGI [14]: 186 nM and 60.4 nM; GI50 [15]: 2.06 nM and < 2.5 nM; TGI [15]: 4.52 nM and < 2.5 nM; GI50 [16]: 54.8 nM and 17.4 nM; TGI [16]: 669 nM and 148 nM; GI50 [17]: 2.58 nM and 2.5 nM; TGI [17]: 8.12 nM and 3.01 nM; GI50 [18]: 3.33 nM and 2.5 nM; TGI [18]: 17.9 nM and 3.85 nM; GI50 [19]: 2.29 nM; TGI [19]: 4.54 nM; GI50 [20]: 3.95 nM and 2.5 nM; TGI [20]: 257 nM and 283 nM; GI50 [21]: 3.23 nM and 2.5 nM; TGI [21]: 105 nM and 20.6 nM; GI50 [22]: 3.36 nM and 2.5 nM; TGI [22]: 10.7 nM and 5.35 nM; GI50 [23]: 3.78 nM and 2.5 nM; TGI [23]: 439 nM; GI50 [24]: 3.65 nM and 2.5 nM; TGI [24]: 17.2 nM and 7.68 nM; GI50 [25]: 21.7 nM and 2.5 nM; TGI [25]: 250 nM and 917 nM; GI50 [26]: 3.82 nM and 2.5 nM; TGI [26]: > 25000 nM; GI50 [27]: 3.55 nM and 7.13 nM; TGI [27]: 22.2 nM and 38.3 nM; GI50 [28]: 2.73 nM and 2.5 nM; TGI [28]: 16.4 nM and 2.9 nM; GI50 [29]: 5.68 nM and 2.5 nM; TGI [29]: 41.2 nM and 10.8 nM; GI50 [30]: 7.45 nM and 6.55 nM; TGI [30]: 46.3 nM and 17.7 nM; GI50 [31]: 11.7 nM and 4.76 nM; TGI [31]: 149 nM and 21 nM; GI50 [32]: 4.1 nM; TGI [32]: 244 nM; GI50 [33]: 22 nM and 8.17 nM; GI50 [34]: 5.63 nM and 2.5 nM; TGI [34]: 517 nM and 106 nM; GI50 [35]: 4.33 nM and 3.35 nM; TGI [35]: 49.6 nM and 15.6 nM; GI50 [36]: 2.44 nM and < 2.5 nM; TGI [36]: 5.8 nM and < 2.5 nM; GI50 [37]: 5.51 nM and 5.55 nM; TGI [37]: 293 nM and 86.4 nM; GI50 [38]: 25.3 nM and 7.96 nM; TGI [38]: 115 nM and 32.2 nM; GI50 [39]: 3.94 nM and 2.95 nM; TGI [39]: 15.2 nM and 8.16 nM; GI50 [40]: 3.01 nM and 2.5 nM; TGI [40]: 8.71 nM and 4.81 nM; GI50 [41]: 7.73 nM and 2.5 nM; TGI [41]: 56 nM and 20.5 nM; GI50 [42]: 4.32 nM and 2.5 nM; TGI [42]: 243 nM and 109 nM; GI50 [43]: 4.28 nM and 2.5 nM; TGI [43]: 102 nM and 14.8 nM; GI50 [44]: 4.26 nM and 2.5 nM; TGI [44]: 115 nM and 261 nM; GI50 [45]: 5.74 nM and 2.5 nM; TGI [45]: 2980 nM; GI50 [46]: 3.73 nM and 2.5 nM; GI50 [47]: 0.713 nM and 2.5 nM; TGI [47]: > 25000 nM; GI50 [48]: 4.85 nM and 3.49 nM; TGI [48]: 41 nM and 40.9 nM; GI50 [49]: 4.19 nM and 2.5 nM; TGI [49]: > 25000 nM; GI50 [50]: 2.41 nM and < 2.5 nM; TGI [50]: 6.6 nM and < 2.5 nM; GI50 [51]: 3.19 nM and 2.5 nM; GI50 [52]: 3.56 nM and 2.5 nM; TGI [52]: > 25000 nM; GI50 [53]: 13.6 nM and 2.5 nM; TGI [53]: 4700 nM; GI50 [54]: 30.9 nM and 7.54 nM; TGI [54]: 694 nM; GI50 [55]: 2.51 nM and < 2.5 nM; TGI [55]: 7.22 nM and < 2.5 nM; GI50 [56]: 7.93 nM and 4.85 nM; TGI [56]: 80.4 nM and 31.9 nM; GI50 [57]: 4.42 nM; TGI [57]: 853 nM; GI50 [58]: 3.68 nM and 2.5 nM

Question: What does the source list for `CC(=O)OC(C)(C)C1O[C@@]23OC1C[C@@H](C)[C@@H]2[C@@]1(C)CC[C@@]24C[C@@]25CC[C@H](OC2OCC(O)C(O)C2O)C(C)(C)[C@@H]5CCC4[C@]1(C)[C@H]3O` (stereo partly drawn)?
Answer: TGI [1]: 13400 nM; TGI [2]: 23800 nM; TGI [3]: 21400 nM; TGI [4]: 24200 nM; TGI [5]: 31600 nM; TGI [6]: 31800 nM; TGI [7]: 27700 nM; TGI [8]: 79400 nM; TGI [9]: 25700 nM; TGI [10]: 46500 nM; TGI [11]: 41300 nM; TGI [12]: 39000 nM; TGI [13]: 18800 nM; TGI [14]: 17100 nM; TGI [15]: 32300 nM; TGI [16]: 27800 nM; TGI [17]: 40600 nM; TGI [18]: 25300 nM; TGI [19]: 19500 nM; TGI [20]: 17000 nM; TGI [21]: 42100 nM; TGI [22]: 18200 nM; TGI [23]: 11900 nM; TGI [24]: 24700 nM; TGI [25]: 29100 nM; TGI [26]: > 38300 nM; TGI [27]: 20400 nM; TGI [28]: 19100 nM; TGI [29]: 15700 nM; TGI [30]: 37700 nM; TGI [31]: 22100 nM; TGI [32]: 15200 nM; TGI [33]: 64800 nM; TGI [34]: 29800 nM; TGI [35]: 32900 nM; TGI [36]: 30300 nM; TGI [37]: 25100 nM; TGI [38]: 32200 nM; TGI [39]: 13800 nM; TGI [40]: 23300 nM; TGI [41]: 14800 nM; TGI [42]: 29100 nM; TGI [43]: 29700 nM; TGI [44]: > 100000 nM; TGI [45]: 15400 nM; TGI [46]: 24700 nM; TGI [47]: > 93200 nM; TGI [48]: 10800 nM; TGI [49]: 45600 nM; TGI [50]: 31400 nM; TGI [51]: 24500 nM; TGI [52]: 21500 nM; TGI [53]: 18600 nM; TGI [54]: 28600 nM; TGI [55]: 12000 nM; TGI [56]: 10700 nM; TGI [57]: 5480 nM; TGI [58]: 18900 nM
